Reference: the supplement of paper PMC8253809

Columns and labels:
DIPGX37 [1] = H3.3 K27M diffuse intrinsic pontine glioma line; test: maximal growth inhibition (yFin) relative to DMSO / staurosporine; higher = more efficacious
Outline: (§1)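 EC50 and maximal response (yFin) were derived from the lowest-AICc fit, either three- or four-parameter log-logistic. The data were pooled CellTiter-Glo luminescence values, log2-transformed and normalised per plate to % activity between negative (solvent) and positive controls. Patient-derived pHGG/DIPG cell lines and astrocyte controls on 1% Geltrex-coated 384-well plates received a 10-point threefold dilution series (mean top concentration 35 μM) by pin tool, in triplicate, for 7 days (iAstro 3 days) at 37 °C, 5% CO2.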

HGGX6 [2] = H3.3 G34R paediatric high-grade glioma line; test: as above
Outline: as §1

DIPGX29 [3] = H3.3 K27M diffuse intrinsic pontine glioma line; test: as above
Outline: as §1

HGGX39 [4] = paediatric high-grade glioma line; test: as above
Outline: as §1

DIPGX37 [5] = test: area under dose-response curve of % growth inhibition (log2 RLU vs DMSO / staurosporine), 1e-11 to 1e-4 M (% x log10 M); higher = more growth inhibition
Outline: (§2)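 Cells were exposed in triplicate for 7 days (iAstro: 3 days) at 37 °C, 5% CO2 to a 10-point series of threefold dilutions with a mean top concentration of 35 μM. These were patient-derived pHGG/DIPG lines plus astrocytes, grown on 384-well plates coated with 1% Geltrex. Readout was CellTiter-Glo luminescence, log2-transformed and set per plate to % activity between solvent and positive controls, from which area under the curve was derived by trapezoid rule on a log-logistic fit or, failing that, a smoothing spline.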

HGGX6 [6] = test: as above
Outline: as §2

DIPGX29 [7] = test: as above
Outline: as §2

HGGX39 [8] = test: as above
Outline: as §2

DIPGX37 [9] = test: EC50 (inflection of fitted growth-inhibition curve) (log10 M)
Outline: as §1

HGGX6 [10] = test: as above
Outline: as §1

DIPGX29 [11] = test: as above
Outline: as §1

HGGX39 [12] = test: as above
Outline: as §1

| Structure (SMILES) | maximal growth inhibition (DIPGX37 [1]) | maximal growth inhibition (HGGX6 [2]) | maximal growth inhibition (DIPGX29 [3]) | maximal growth inhibition (HGGX39 [4]) | area under dose-response curve (DIPGX37 [5]) | area under dose-response curve (HGGX6 [6]) | area under dose-response curve (DIPGX29 [7]) | area under dose-response curve (HGGX39 [8]) | EC50 (log10 M) (DIPGX37 [9]) | EC50 (log10 M) (HGGX6 [10]) | EC50 (log10 M) (DIPGX29 [11]) | EC50 (log10 M) (HGGX39 [12]) |
| --- | --- | --- | --- | --- | --- | --- | --- | --- | --- | --- | --- | --- |
| CC(C)OC(=O)C(C(=O)OC(C)C)=C1SC=CS1 [MALOTILATE] | 57.4% | 34.8% | 35.2% | 83.7% | 50.9 | 32.7 | 30.3 | 88.2 | -4.89 | -4.94 | -4.88 | -4.94 |
| Cc1ccc(NC(=O)c2ccc(CN3CCN(C)CC3)cc2)cc1Nc1nc(-c2cccnc2)cs1 [MASITINIB] | 81% | 78.3% | 72.3% | 81.1% | 52.8 | 64.6 | 57.8 | 66.4 | -4.65 | -4.66 | -4.69 | -4.71 |
| Cc1cccc(CN2CCN(C(c3ccccc3)c3ccc(Cl)cc3)CC2)c1 (centres undefined) [MECLIZINE] | 79.1% | 41.1% | 41.9% | 48.7% | 85.1 | 35.5 | 42.8 | 44.3 | -4.83 | -4.86 | -4.89 | -4.91 |
| CN(C)c1ccc2nc3ccc(=[N+](C)C)cc-3sc2c1 [METHYLENE BLUE] | 54.8% | 69.6% | 56.7% | 50.7% | 67.9 | 89.6 | 76.5 | 76.9 | -5.04 | -5.03 | -5.31 | -5.48 |
| Cc1c(CN2CCC(Nc3ncnc4sc(CC(F)(F)F)cc34)CC2)ccc2c1cc(C#N)n2Cc1cn[nH]c1 [MI-503] | 72.1% | 71.9% | 74% | 74.2% | 70.7 | 83.9 | 92.6 | 84.8 | -4.98 | -4.9 | -4.9 | -5.14 |
| Clc1ccc(COC(Cn2ccnc2)c2ccc(Cl)cc2Cl)c(Cl)c1 (centres undefined) [MICONAZOLE] | 61.9% | 41.5% | 45.9% | 42.1% | 48.6 | 35.5 | 46.5 | 39.2 | -4.79 | -4.87 | -4.89 | -4.94 |
| CO[C@@]12[C@H](COC(N)=O)C3=C(C(=O)C(C)=C(N)C3=O)N1C[C@@H]1N[C@@H]12 [MITOMYCIN C] | 73% | 66.2% | 62.3% | 69.7% | 95.2 | 75.4 | 78 | 91.5 | -4.87 | -4.76 | -4.78 | -4.78 |
| COc1c(C)c2c(c(O)c1C/C=C(\C)CCC(=O)OCCN1CCOCC1)C(=O)OC2 [MYCOPHENOLATE MOFETIL] | 30.5% | 20% | 24.8% | 24.4% | 41.2 | 30.4 | 36.4 | 39.6 | -5.33 | -5.49 | -5.33 | -5.61 |
| O=C(N/N=C/c1ccc([N+](=O)[O-])o1)c1ccc(O)cc1 [NIFUROXAZIDE] | 81.6% | 74.2% | 81.1% | 49.3% | 78.2 | 56.6 | 73.5 | 39.4 | -4.75 | -4.77 | -4.78 | -4.81 |
| CCCCCCCCOc1ccccc1C(=O)Nc1ccc(C(=O)OCC[N+](C)(CC)CC)cc1 [OTILONIUM] | 26.4% | 69.5% | 22.4% | 77.5% | 22.7 | 61.2 | 16.8 | 74.2 | -4.86 | -4.88 | -4.75 | -4.96 |
| CCN(CC)CCOCCOC(=O)C(CC)(CC)c1ccccc1 [OXELADIN] | 34.4% | 28.2% | 25.1% | 64.4% | 35.4 | 28.1 | 19.7 | 59.1 | -4.88 | -4.83 | -4.79 | -4.84 |
| CN(C(=O)CN(CCO)CC(=O)N(C)C(C)(C)Cc1ccccc1)C(C)(C)Cc1ccccc1 [OXETHAZAINE] | 82.1% | 47.3% | 77.7% | 88.2% | 65.5 | 38.4 | 63 | 71.1 | -4.8 | -4.82 | -4.81 | -4.81 |
| N=C(N)c1ccc(OCCCCCOc2ccc(C(=N)N)cc2)cc1 [PENTAMIDINE] | 31.7% | 33.1% | 38.4% | 32.4% | 50 | 45.3 | 55.6 | 66.5 | -5.08 | -5.4 | -5.15 | -6.05 |
| COc1cc2nc(N3CCN(C(=O)c4ccco4)CC3)nc(N)c2cc1OC [PRAZOSIN] | 75.4% | 75% | 75.3% | 74.7% | 75.3 | 76.9 | 66.6 | 66.9 | -4.92 | -5.03 | -4.88 | -4.9 |
| COc1cc(NC(C)CCCN)c2ncccc2c1 (centres undefined) [PRIMAQUINE] | 72.9% | 78% | 72.2% | 75.8% | 116 | 107 | 131 | 113 | -5.5 | -5.38 | -5.69 | -5.5 |
| NCCOc1cc(C(=O)Nc2cc(OCCN)c3ccccc3n2)nc(C(=O)Nc2cc(OCCN)c3ccccc3n2)c1 [PYRIDOSTATIN] | 31.7% | 56.9% | 61% | 59.6% | 54 | 82.2 | 74 | 58.1 | -5 | -5.03 | -5.01 | -4.99 |

| Structure (SMILES) | maximal growth inhibition (DIPGX37 [1]) | maximal growth inhibition (HGGX6 [2]) | maximal growth inhibition (DIPGX29 [3]) | maximal growth inhibition (HGGX39 [4]) | area under dose-response curve (DIPGX37 [5]) | area under dose-response curve (HGGX6 [6]) | area under dose-response curve (DIPGX29 [7]) | area under dose-response curve (HGGX39 [8]) | EC50 (log10 M) (DIPGX37 [9]) | EC50 (log10 M) (HGGX6 [10]) | EC50 (log10 M) (DIPGX29 [11]) | EC50 (log10 M) (HGGX39 [12]) |
| --- | --- | --- | --- | --- | --- | --- | --- | --- | --- | --- | --- | --- |
| [O-][n+]1ccccc1[S-].[O-][n+]1ccccc1[S-].[Zn+2] [PYRITHIONE ZINC] | 93.1% | 75.7% | 82.5% | 83.5% | 112 | 116 | 130 | 135 | -5.23 | -5.55 | -5.6 | -5.61 |
| CCN(CC)CCCC(C)Nc1c2ccc(Cl)cc2nc2ccc(OC)cc12 (centres undefined) [QUINACRINE] | 72.4% | 74.3% | 74.8% | 74.3% | 56 | 73.7 | 79.9 | 55.7 | -4.78 | -4.97 | -4.79 | -4.75 |
| O=C(c1ccc(OCCN2CCCCC2)cc1)c1c(-c2ccc(O)cc2)sc2cc(O)ccc12 [RALOXIFENE] | 73.5% | 73.2% | 68.3% | 73.2% | 68.2 | 64.5 | 63.5 | 67.7 | -4.93 | -4.88 | -4.93 | -4.93 |
| CNC(=O)c1cc(Oc2ccc(NC(=O)Nc3ccc(Cl)c(C(F)(F)F)c3)c(F)c2)ccn1 [REGORAFENIB] | 43.5% | 38% | 37.6% | 33.2% | 62.5 | 70.8 | 39.5 | 55.2 | -5.37 | -5.33 | -4.87 | -5.33 |
| O=C(CCCCCCNC(=O)c1cnc(N(c2ccccc2)c2ccccc2)nc1)NO [ROCILINOSTAT] | 39.7% | 39.1% | 62.1% | 26.8% | 60.5 | 49.1 | 63.1 | 25.7 | -4.87 | -4.9 | -4.94 | -4.96 |
| Cc1ccc(NC2=CC(=O)c3sc(C)nc3C2=O)cc1 [RYUVIDINE] | 110% | 90.5% | 97.5% | 98.1% | 187 | 197 | 207 | 169 | -5.7 | -6.18 | -6.12 | -5.76 |
| CC[C@@H](C(=O)[C@@H](C)[C@@H](O)[C@H](C)[C@@H]1O[C@@H]([C@@H](CC)C(=O)O)CC[C@@H]1C)[C@H]1O[C@]2(C=C[C@@H](O)[C@]3(CC[C@@](C)([C@H]4CC[C@](O)(CC)[C@H](C)O4)O3)O2)[C@H](C)C[C@@H]1C [SALINOMYCIN] | 62.6% | 60.5% | 69.7% | 73.9% | 153 | 85.6 | 106 | 153 | -6.53 | -5.03 | -5.32 | -6.01 |
| Clc1ccc(C(Cn2ccnc2)OCc2csc3c(Cl)cccc23)c(Cl)c1 (centres undefined) [SERTACONAZOLE] | 84.7% | 62.2% | 64.2% | 61.9% | 73.6 | 50.7 | 51.2 | 72.3 | -4.87 | -4.82 | -4.81 | -4.95 |
| CN[C@H]1CC[C@@H](c2ccc(Cl)c(Cl)c2)c2ccccc21 [SERTRALINE] | 86.5% | 81% | 85.3% | 91.4% | 70 | 63.3 | 73.3 | 83.8 | -4.82 | -4.79 | -4.86 | -4.83 |
| CNC(=O)c1cc(Oc2ccc(NC(=O)Nc3ccc(Cl)c(C(F)(F)F)c3)cc2)ccn1 [SORAFENIB] | 79% | 75.3% | 57.2% | 80.4% | 104 | 77.2 | 46.9 | 77 | -4.9 | -4.9 | -4.82 | -4.96 |
| Cc1nc(-c2cccnc2)sc1C(=O)Nc1ccccc1-c1cn2c(CN3CCOCC3)csc2n1 [SRT2104] | 68.5% | 67.3% | 69% | 72.4% | 101 | 80.8 | 79.7 | 60.9 | -5.24 | -5.21 | -5.16 | -4.84 |
| Clc1ccc(CSC(Cn2ccnc2)c2ccc(Cl)cc2Cl)cc1 (centres undefined) [SULCONAZOLE] | 61.3% | 44.1% | 45.9% | 34.1% | 41.8 | 44.2 | 48.2 | 39.2 | -4.68 | -4.87 | -4.86 | -4.87 |
| Cc1nc(-c2cn3c(n2)-c2ccc(-c4cnn(C(C)(C)C(N)=O)c4)cc2OCC3)n(C(C)C)n1 [TASELISIB] | 56.7% | 38.8% | 63.3% | 47.5% | 138 | 86 | 122 | 74.8 | -6.36 | -6.13 | -5.8 | -5.49 |
| COc1cc([C@@H]2c3cc4c(cc3[C@@H](O[C@@H]3O[C@@H]5CO[C@@H](c6cccs6)O[C@H]5[C@H](O)[C@H]3O)[C@H]3COC(=O)[C@H]23)OCO4)cc(OC)c1O [TENIPOSIDE] | 50.7% | 31.2% | 33.5% | 37.6% | 81.2 | 42.9 | 63.2 | 75.2 | -5.43 | -5.36 | -6.01 | -5.94 |
| Clc1ccc(C(Cn2ccnc2)OCc2ccsc2Cl)c(Cl)c1 (centres undefined) [TIOCONAZOLE] | 78% | 46.3% | 48.3% | 65.3% | 56 | 38.1 | 36.4 | 51.3 | -4.73 | -4.82 | -4.77 | -4.79 |
| CN1CCN(CCCN2c3ccccc3Sc3ccc(C(F)(F)F)cc32)CC1 [TRIFLUOPERAZINE] | 87.2% | 80.2% | 82.9% | 90.3% | 76.8 | 62.3 | 74.2 | 87.4 | -4.88 | -4.78 | -4.89 | -4.86 |
